Experimental data: US8933066B2, “Compounds for the treatment of hepatitis C” (priority 2011, dated 2015)
pEC50: −log10 of the molar value. Like-named read-outs stand apart in the source and are kept apart here.

Test system: HCV pseudoparticles (genotype 1a HCV E1 and E2 envelope, H77C isolate)
Test: HCV pseudoparticle infection assay (luciferase reporter, entry into Huh7 cells)
Type: cell-based
Conditions: Hepatitis C virus, Huh-7, 48 h
[1] = read-out: Activity Range (EC50)

Row | SMILES | pEC50 [1] | pEC50
1 | FC(F)(F)COc1nc2nc(n1)Nc1cnn(c1)CCCCCCOc1ccc(cc1)CN2 [Example 3001] | 6.30 to 10.00 | –
2 | FC(F)(F)COc1nc2nc(n1)Nc1cnn(c1)CCNCCCOc1ccc(cc1)CN2 [Example 2006] | 6.30 to 10.00 | –
3 | FC(F)(F)COc1nc2nc(n1)Nc1cnn(c1)CCOCCOCCOc1ccc(cc1)CN2 [Example 2002] | 6.30 to 10.00 | –
4 | CC(C)(C)NC(=O)N1CCCOc2ccc(cc2)CNc2nc(nc(OCC(F)(F)F)n2)Nc2cnn(c2)CC1 [Example 2007] | 6.30 to 10.00 | 6.98
